In patent US20100056507A1, “PHENYL DERIVATIVES AND THEIR USE AS A MEDICAMENT” (IPSEN PHARMA S.A.S., priority 2006, published 2010):
Like-named read-outs stand apart in the source and are kept apart here.

Target: T1, human CB2 receptors (Homo sapiens, UniProt P34972)
T1 construct: expressed in transfected cells; membranes used
Experiment: Affinity for the human CB2 cannabinoid receptors: inhibition of [3H]-CP55940 binding to transfected CHO-K1 cell membranes
Details: [3H]-CP55940 1 nM, CHO-K1 membranes expressing human CB2, Cheng-Prusoff correction
Protocol: The affinity of the compounds of the invention for the human CB2 receptors is determined by measuring the inhibition of the binding of [^3H]-CP55940 to transfected CHO-K1 cell membrane preparations.
The cells are collected with 0.5 mM of EDTA and centrifuged at 500 g for 5 minutes at 4° C. The pellet is re-suspended in phosphate buffered saline medium (PBS) and centrifuged at 500 g for 5 minutes at 4° C. The pellet is re-suspended in a Tris 50 mM buffer medium at pH 7.4 and centrifuged at 500 g for 5 minutes at 4° C. The cells are lysed by sonication and centrifuged at 39,000 g for 10 minutes at 4° C. The pellet is re-suspended in the Tris 50 mM buffer medium at pH 7.4 and centrifuged at 50,000 g for 10 minutes at 4° C. The membranes obtained in this last pellet are stored at −80° C.
Measurement of the competitive inhibition of the binding of the [^3H]-CP55940 to the CB2 receptors is carried out in duplicate using 96-well polypropylene plates. The cell membranes (10 μg of proteins/well) are incubated with the [^3H]-CP55940 (1 nM) for 60 minutes at 25° C. in a Tris-HCl 50 mM buffer medium, pH 7.4, comprising 0.1% bovine serum albumin (BSA), 5 mM of MgCl2, and 50 μg/ml of bacitracin.
The filters are washed with Tris-HCl 50 mM buffer, pH 7.4 at 0-4° C. and the radioactivity present is determined using a counter (Packard Top Count).
The specific binding is obtained by subtracting the non-specific binding (determined in the presence of 0.1 μM of WIN55212-2 from the total binding). The data are analyzed by computer-assisted non-linear regression (MDL). For each test, a Cheng-Prusoff correction is made in order to convert the IC50 to the inhibition constant, Ki.
where [L] is the concentration of the radioligand used in the test and Kd is the radioligand equilibrium disassociation constant.

T1 sequence (P34972 whole entry): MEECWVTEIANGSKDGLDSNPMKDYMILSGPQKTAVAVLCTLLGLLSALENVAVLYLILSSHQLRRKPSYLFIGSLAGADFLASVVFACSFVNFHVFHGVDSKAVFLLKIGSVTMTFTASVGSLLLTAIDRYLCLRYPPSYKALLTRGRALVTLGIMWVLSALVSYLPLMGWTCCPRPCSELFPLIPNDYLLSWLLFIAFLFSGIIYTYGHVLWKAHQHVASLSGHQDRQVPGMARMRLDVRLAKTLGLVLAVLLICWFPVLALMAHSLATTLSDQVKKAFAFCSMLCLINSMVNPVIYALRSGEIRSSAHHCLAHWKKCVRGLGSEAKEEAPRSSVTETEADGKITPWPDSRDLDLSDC

Row | Ki (read-out: Ki < 0.5 μM) [µM] | Ki (read-out: Ki < 5 μM) [µM] | SMILES
1 | < 0.5 | < 5 | CCS(=O)(=O)Nc1ccc(CCOC(=O)c2ccc3c(c2)C(C)(C)CCC3(C)C)cc1 [Example 70]
2 |  | < 5 | CC1(C)CCC(C)(C)c2cc(-c3nnc(NCc4ccc(/N=C(/N)c5cccs5)cc4)o3)ccc21 [Example 28]
3 | < 0.5 | < 5 | CC(C)(C)c1cc(-c2nnc(NCc3ccc(/N=C(/N)c4cccs4)cc3)o2)cc(C(C)(C)C)c1 [Example 27]
4 | < 0.5 | < 5 | CCCS(=O)(=O)Nc1ccc(CCOC(=O)c2ccc3c(c2)C(C)(C)CCC3(C)C)cc1 [Example 71]
5 | < 0.5 | < 5 | CCC(C)C(=O)Nc1ccc(CCOC(=O)c2ccc3c(c2)C(C)(C)CCC3(C)C)cc1 (stereo not drawn) [Example 95]
6 | < 0.5 | < 5 | CC(C)(C)c1cc(-c2nnc(CCc3ccc(/N=C(/N)c4cccs4)cc3)o2)cc(C(C)(C)C)c1 [Example 22]
7 | < 0.5 | < 5 | CC(C)(C)C(=O)Nc1ccc(CCOC(=O)c2ccc3c(c2)C(C)(C)CCC3(C)C)cc1 [Example 57]
8 | < 0.5 | < 5 | C=CC(=O)Nc1ccc(CCOC(=O)c2ccc3c(c2)C(C)(C)CCC3(C)C)cc1 [Example 61]
9 | < 0.5 | < 5 | CC1(C)CCC(C)(C)c2cc(C(=O)OCCc3ccc(NS(C)(=O)=O)cc3)ccc21 [Example 69, 2-{4-[(methylsulphonyl)amino]phenyl}ethyl 5,5,8,8-tetramethyl-5,6,7,8-tetrahydronaphthalene-2-carboxylate]
10 | < 0.5 | < 5 | CC(C)C(=O)Nc1ccc(CCOC(=O)c2ccc3c(c2)C(C)(C)CCC3(C)C)cc1 [Example 56]
11 | < 0.5 | < 5 | CC1(C(=O)Nc2ccc(CCOC(=O)c3ccc4c(c3)C(C)(C)CCC4(C)C)cc2)CC1 [Example 87]
12 | < 0.5 | < 5 | CC(C)(C)NC(=O)Nc1ccc(CCOC(=O)c2ccc3c(c2)C(C)(C)CCC3(C)C)cc1 [Example 74]
13 | < 0.5 | < 5 | CCNC(=O)Nc1ccc(CCOC(=O)c2ccc3c(c2)C(C)(C)CCC3(C)C)cc1 [Example 81]
14 | < 0.5 | < 5 | COCCC(=O)Nc1ccc(CCOC(=O)c2ccc3c(c2)C(C)(C)CCC3(C)C)cc1 [Example 86]
15 | < 0.5 | < 5 | CC1(C)CCC(C)(C)c2cc(C(=O)OCCc3ccc(NC(=O)NCc4ccccc4)cc3)ccc21 [Example 84]
16 | < 0.5 | < 5 | CC(C)CC(=O)Nc1ccc(CCOC(=O)c2ccc3c(c2)C(C)(C)CCC3(C)C)cc1 [Example 58]
17 | < 0.5 | < 5 | CC(C)(C)c1cc(-c2nc(Cc3ccc(/N=C(/N)c4cccs4)cc3)no2)cc(C(C)(C)C)c1 [Example 5]
18 | < 0.5 | < 5 | CC1(C)CCC(C)(C)c2cc(C(=O)OCCc3ccc(NC(=O)Cc4ccco4)cc3)ccc21 [Example 93]
19 | < 0.5 | < 5 | CC(C)(C)c1cc(-c2nnc(Cc3ccc(/N=C(/N)c4cccs4)cc3)o2)cc(C(C)(C)C)c1 [Example 2]
20 | < 0.5 | < 5 | CC1(C)CCC(C)(C)c2cc(C(=O)OCCc3ccc(NC(=O)C4CC4)cc3)ccc21 [Example 63]
21 | < 0.5 | < 5 | CC1(C)CCC(C)(C)c2cc(C(=O)OCCc3ccc(NC(=O)NCc4ccco4)cc3)ccc21 [Example 75]
22 | < 0.5 | < 5 | C=CCNC(=S)Nc1ccc(CCOC(=O)c2ccc3c(c2)C(C)(C)CCC3(C)C)cc1 [Example 78]
23 | < 0.5 | < 5 | CCC(=O)Nc1ccc(CCOC(=O)c2ccc3c(c2)C(C)(C)CCC3(C)C)cc1 [Example 55]

Second part, the compound before the results:

Row | SMILES | Ki (read-out: Ki < 0.5 μM) [µM] | Ki (read-out: Ki < 5 μM) [µM]
24 | CC1(C)CCC(C)(C)c2cc(-c3coc(CCc4ccc(NC(=O)C5CCC5)cc4)n3)ccc21 [Example 39, N-(4-{2-[4-(5,5,8,8-tetramethyl-5,6,7,8-tetrahydronaphthalen-2-yl)-1,3-oxazol-2-yl]ethyl}phenyl)cyclobutanecarboxamide] | < 0.5 | < 5
25 | CC1(C)CCNc2ccc(C(=O)OCCc3ccc(NC(=O)C4CCC4)cc3)cc21 [Example 50] | < 0.5 | < 5
26 | C=CCNC(=O)Nc1ccc(CCc2nnc(-c3ccc4c(c3)C(C)(C)CCC4(C)C)s2)cc1 [Example 52] | < 0.5 | < 5
27 | C=CCNC(=O)Nc1ccc(CCc2nnc(-c3cc(C(C)(C)C)cc(C(C)(C)C)c3)s2)cc1 [Example 47] | < 0.5 | < 5
28 | CC1(C)CCC(C)(C)c2cc(C(=O)OCCc3ccc(NC(=O)NC4CC4)cc3)ccc21 [Example 96] | < 0.5 | < 5
29 | Cc1cc2c(cc1C(=O)OCCc1ccc(NC(=O)C3CCC3)cc1)CCCC2(C)C [Example 36] | < 0.5 | < 5
30 | CCCNC(=O)Nc1ccc(Cc2noc(-c3cc(C(C)(C)C)cc(C(C)(C)C)c3)n2)cc1 [Example 21] | < 0.5 | < 5
31 | CCCNC(=O)Nc1ccc(Cc2nnc(-c3cc(C(C)(C)C)cc(C(C)(C)C)c3)o2)cc1 [Example 14] | < 0.5 | < 5
32 | C=CCNC(=O)Nc1ccc(CCc2nnc(-c3cc(C(C)(C)C)cc(C(C)(C)C)c3)o2)cc1 [Example 17] | < 0.5 | < 5
33 | CC1(C)CCC(C)(C)c2cc(-c3nc(CCc4ccc(NC(=O)C5CCC5)cc4)no3)ccc21 [Example 98] | < 0.5 | < 5
34 | O=C(OCCc1ccc(NC(=O)C2CCC2)cc1)c1ccc2c(c1)OCCO2 [Example 4] |  | < 5
35 | C=CCNC(=O)Nc1ccc(CCc2nc(-c3ccc4c(c3)C(C)(C)CCC4(C)C)co2)cc1 [Example 40] | < 0.5 | < 5
36 | CC1(C)CCC(C)(C)c2cc(C(=O)OCCc3ccc(NC(=O)C4CCCCC4)cc3)ccc21 [Example 65] | < 0.5 | < 5
37 | CC1(C)CCC(C)(C)c2cc(C(=O)OCCc3ccc(NC(=O)C4CC4(C)C)cc3)ccc21 (stereo not drawn) [Example 89] | < 0.5 | < 5
38 | O=C(OCCc1ccc(NC(=O)C2CCC2)cc1)c1ccc2c(c1)CCCC2 [Example 15] | < 0.5 | < 5
39 | C=CCNC(=O)Nc1ccc(CNc2nnc(-c3cc(C(C)(C)C)cc(C(C)(C)C)c3)o2)cc1 [Example 24] | < 0.5 | < 5

Row | SMILES | Ki (read-out: Ki < 0.5 μM) [µM] | Ki (read-out: Ki < 5 μM) [µM]
40 | CC1(C)CCC(C)(C)c2cc(C(=O)OCCc3ccc(NC(=O)CC4CCCC4)cc3)ccc21 [Example 66] | < 0.5 | < 5
41 | CC1(C)CCC(C)(C)c2cc(C(=O)OCCc3ccc(NC(=O)C4CC45CCC5)cc3)ccc21 (stereo not drawn) [Example 90] | < 0.5 | < 5
42 | C=CCNC(=O)Nc1ccc(Cc2nnc(-c3cc(C(C)(C)C)cc(C(C)(C)C)c3)o2)cc1 [Example 13] | < 0.5 | < 5
43 | C=CCNC(=O)Nc1ccc(Cc2noc(-c3cc(C(C)(C)C)cc(C(C)(C)C)c3)n2)cc1 [Example 20] | < 0.5 | < 5
44 | CCCNC(=O)Nc1ccc(CCc2nc(-c3ccc4c(c3)C(C)(C)CCC4(C)C)co2)cc1 [Example 41] | < 0.5 | < 5
45 | CC1(C)CCC(C)(C)c2cc(-c3nnc(NCc4ccc(NC(=O)C5CCC5)cc4)o3)ccc21 [Example 25] | < 0.5 | < 5
46 | Cc1cc2c(cc1C(=O)OCCc1ccc(NC(=O)C3CCC3)cc1)C(C)(C)CC(C)C2(C)C (stereo not drawn) [Example 45] | < 0.5 | < 5
47 | CC(C)(C)c1cc(-c2nnc(CCc3ccc(NC(=O)C4CCC4)cc3)s2)cc(C(C)(C)C)c1 [Example 46] | < 0.5 | < 5
48 | CC1(C)CCC(C)(C)c2cc(-c3nnc(CCc4ccc(NC(=O)C5CCC5)cc4)o3)ccc21 [Example 31] | < 0.5 | < 5
49 | C=CCNC(=O)Nc1ccc(CNc2nnc(-c3ccc4c(c3)C(C)(C)CCC4(C)C)o2)cc1 [Example 26] | < 0.5 | < 5
50 | CN1CCOc2cc(C(=O)OCCc3ccc(NC(=O)C4CCC4)cc3)ccc21 [Example 10] | < 0.5 | < 5
51 | C=CCNC(=O)Nc1ccc(CCc2nnc(-c3ccc4c(c3)C(C)(C)CCC4(C)C)o2)cc1 [Example 32] | < 0.5 | < 5
52 | CC(C)(C)c1cc(-c2nnc(Cc3ccc(NC(=O)C4CCC4)cc3)o2)cc(C(C)(C)C)c1 [Example 12] | < 0.5 | < 5
53 | CCCNC(=O)Nc1ccc(CCc2nnc(-c3ccc4c(c3)C(C)(C)CCC4(C)C)o2)cc1 [Example 33] | < 0.5 | < 5
54 | CC1(C)CCC(C)(C)c2cc(C(=O)OCCc3ccc(NC(=O)C4CCCC4)cc3)ccc21 [Example 64] | < 0.5 | < 5
55 | CC1(C)CC(C)(C)c2cc(C(=O)OCCc3ccc(NC(=O)C4CCC4)cc3)ccc21 [Example 37] | < 0.5 | < 5
